{
  "source": "patent US20200017495A1",
  "about": "“NOVEL HETEROCYCLIC COMPOUNDS AND THEIR USE IN PREVENTING OR TREATING BACTERIAL INFECTIONS” (priority 2017, published 2020)",
  "key": {"[1]": {"experiment": "Rat intraduodenal bioavailability determination", "type": "in vivo, Male Sprague-Dawley (SD) rats", "settings": "10 mg/kg, AF2 titrated in plasma", "procedure": "Method 3: Rat Intraduodenal Bioavailability Determination (Table 7) Intravenous (jugular) or intraduodenal catheterized Male Sprague-Dawley (SD) rats (250-270 g) were obtained from Janvier Labs (Le Genest-Saint-Isle, France). All rats were housed in a −temperature (20±2° C.) and −humidity (55%±10%) controlled room with 12h light/dark cycle, and were acclimatized for at least 4 days before experimentation. Water and food were available ad libitum throughout the study. All rats were handled in accordance with the institutional and national guidelines for the care and use of laboratory animals. Rats were allocated to two groups based on the administration route: intravenous or intraduodenal administration (n=3/group). In the intravenous administration study, drugs (10 mg/kg in phosphate buffer 10 mM, pH7.4) were administered under isoflurane anesthesia via the catheter placed in the jugular vein. […] The pharmacokinetic parameters were calculated using XLfit (IDBS) and Excel (Microsoft) software, using standard non-compartmental methods. The intraduodenal bioavailability was calculated by dividing the AUC obtained from the intraduodenal administration by the AUC obtained from the intravenous administration."}, "SHV-1": {"target": "SHV-1 (Klebsiella pneumoniae, UniProt P0AD64)", "sequence (P0AD64 22-286)": "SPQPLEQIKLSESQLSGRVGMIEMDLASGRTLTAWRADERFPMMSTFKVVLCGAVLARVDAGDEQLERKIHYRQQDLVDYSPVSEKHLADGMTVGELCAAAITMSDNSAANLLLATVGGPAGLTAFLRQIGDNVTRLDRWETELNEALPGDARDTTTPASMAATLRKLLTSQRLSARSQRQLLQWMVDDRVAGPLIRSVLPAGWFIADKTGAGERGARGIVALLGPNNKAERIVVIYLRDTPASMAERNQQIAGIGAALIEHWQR", "experiment": "β-lactamase inhibitory activity, IC50 (nitrocefin hydrolysis)", "type": "biochemical", "protocol": "(§1) Enzymes were cloned in E. coli expression vector, expressed and purified in house using classical procedures. […] After 30 min of pre-incubation at room temperature, 15 μL of NCF (100 μM final) were finally added in each well. […] Enzyme activity was obtained by subtracting the background from the final signal, and was converted to enzyme inhibition using non inhibited wells. IC50 curves were fitted to a classical Langmuir equilibrium model with Hill slope using XLFIT (IDBS)."}, "TEM-1": {"target": "TEM-1 (Escherichia coli, UniProt P62593)", "sequence (P62593 24-286 limits assumed)": "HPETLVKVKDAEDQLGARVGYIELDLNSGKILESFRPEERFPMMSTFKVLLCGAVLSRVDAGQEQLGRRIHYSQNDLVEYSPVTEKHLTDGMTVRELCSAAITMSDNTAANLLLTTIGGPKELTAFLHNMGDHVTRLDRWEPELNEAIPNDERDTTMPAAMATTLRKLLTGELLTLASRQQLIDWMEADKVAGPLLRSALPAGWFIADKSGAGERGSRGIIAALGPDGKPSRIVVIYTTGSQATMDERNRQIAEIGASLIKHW", "experiment": "β-lactamase inhibitory activity, IC50 (nitrocefin hydrolysis)", "type": "biochemical", "protocol": "as §1"}, "OXA-1": {"target": "OXA-1 (Escherichia coli, UniProt P13661)", "sequence (P13661 26-276)": "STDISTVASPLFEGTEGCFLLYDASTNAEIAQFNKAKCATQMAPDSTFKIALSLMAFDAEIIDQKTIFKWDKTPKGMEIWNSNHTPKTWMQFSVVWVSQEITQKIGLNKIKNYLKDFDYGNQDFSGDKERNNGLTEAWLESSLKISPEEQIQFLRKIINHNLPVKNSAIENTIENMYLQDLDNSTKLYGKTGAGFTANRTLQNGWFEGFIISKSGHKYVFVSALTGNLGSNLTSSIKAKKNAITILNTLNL", "experiment": "β-lactamase inhibitory activity, IC50 (nitrocefin hydrolysis)", "type": "biochemical", "protocol": "as §1"}, "OXA-23": {"target": "OXA-23 (Acinetobacter baumannii, UniProt Q9L4P2)", "sequence (Q9L4P2 18-273)": "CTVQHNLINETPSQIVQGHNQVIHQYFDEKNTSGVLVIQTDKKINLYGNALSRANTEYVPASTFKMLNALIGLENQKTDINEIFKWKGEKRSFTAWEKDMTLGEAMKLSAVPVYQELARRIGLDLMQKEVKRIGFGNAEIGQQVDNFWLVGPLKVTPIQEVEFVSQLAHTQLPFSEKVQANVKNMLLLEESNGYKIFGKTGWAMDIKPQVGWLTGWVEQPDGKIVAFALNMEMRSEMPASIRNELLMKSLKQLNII", "experiment": "β-lactamase inhibitory activity, IC50 (nitrocefin hydrolysis)", "type": "biochemical", "protocol": "as §1"}, "OXA-48": {"target": "OXA-48 (Klebsiella pneumoniae, UniProt Q6XEC0)", "sequence (Q6XEC0 23-265 limits assumed)": "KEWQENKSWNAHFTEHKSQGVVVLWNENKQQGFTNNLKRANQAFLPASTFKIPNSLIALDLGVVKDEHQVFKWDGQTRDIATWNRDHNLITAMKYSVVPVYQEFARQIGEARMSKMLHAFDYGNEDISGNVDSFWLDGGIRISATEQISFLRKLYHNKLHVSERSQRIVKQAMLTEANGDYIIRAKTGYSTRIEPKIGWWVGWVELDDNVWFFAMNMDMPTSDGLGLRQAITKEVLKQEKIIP", "experiment": "β-lactamase inhibitory activity, IC50 (nitrocefin hydrolysis)", "type": "biochemical", "protocol": "as §1"}, "SHV-12": {"target": "SHV-12 (Klebsiella pneumoniae, UniProt P0AD64, E235K/G234S/L31Q)", "sequence (P0AD64 22-286 L31Q/G234S/E235K)": "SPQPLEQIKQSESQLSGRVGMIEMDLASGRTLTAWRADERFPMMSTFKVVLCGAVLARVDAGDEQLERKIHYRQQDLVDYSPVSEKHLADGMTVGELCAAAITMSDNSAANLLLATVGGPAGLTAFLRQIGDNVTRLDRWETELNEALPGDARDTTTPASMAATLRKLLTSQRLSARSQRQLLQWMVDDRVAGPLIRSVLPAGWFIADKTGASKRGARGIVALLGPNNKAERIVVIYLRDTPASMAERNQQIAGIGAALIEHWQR", "experiment": "β-lactamase inhibitory activity, IC50 (nitrocefin hydrolysis)", "type": "biochemical", "protocol": "Method 1: β-Lactamase Inhibitory Activity, Determination of IC50 (Table 1)\nas §1"}, "PAE ampC": {"target": "PAE ampC (Pseudomonas aeruginosa, UniProt P24735)", "sequence (P24735 27-397)": "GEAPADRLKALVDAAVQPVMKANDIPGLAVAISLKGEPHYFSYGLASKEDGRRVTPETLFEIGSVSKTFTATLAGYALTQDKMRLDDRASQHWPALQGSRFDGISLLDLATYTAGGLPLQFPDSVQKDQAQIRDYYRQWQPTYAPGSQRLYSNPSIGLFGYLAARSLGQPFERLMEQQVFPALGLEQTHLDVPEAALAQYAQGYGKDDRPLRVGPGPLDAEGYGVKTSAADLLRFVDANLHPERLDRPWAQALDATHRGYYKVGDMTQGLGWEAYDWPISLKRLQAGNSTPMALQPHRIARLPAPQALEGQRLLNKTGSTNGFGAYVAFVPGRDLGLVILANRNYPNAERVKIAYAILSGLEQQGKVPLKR", "experiment": "β-lactamase inhibitory activity, IC50 (nitrocefin hydrolysis)", "type": "biochemical, P. aeruginosa", "protocol": "as §1"}, "OXA-40": {"target": "OXA-40 (Acinetobacter baumannii, UniProt Q8RLA6)", "sequence (Q8RLA6 entry or part of it)": "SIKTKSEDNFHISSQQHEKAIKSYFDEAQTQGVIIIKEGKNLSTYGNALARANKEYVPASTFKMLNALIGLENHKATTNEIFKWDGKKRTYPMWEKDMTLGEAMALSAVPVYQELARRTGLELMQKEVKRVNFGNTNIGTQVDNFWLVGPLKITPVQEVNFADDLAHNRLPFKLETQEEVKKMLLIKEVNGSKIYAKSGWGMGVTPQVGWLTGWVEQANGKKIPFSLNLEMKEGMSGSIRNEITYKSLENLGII", "experiment": "β-lactamase inhibitory activity, IC50 (nitrocefin hydrolysis)", "type": "biochemical", "protocol": "as §1"}},
  "data": [
    {"smiles": "O=C1N2CC(c3ncco3)=CC(C2)N1OC(F)(F)C(=O)[O-].[Li+]", "note": "(stereo not drawn) [AF2]", "values": [
      {"measurement": "AUC 0-∞", "setting": "[1]; intravenous", "value": 10789, "unit": "ng·h/mL"},
      {"measurement": "AUC(0-inf)", "setting": "[1]; male, Sprague-Dawley, plasma, iv", "value": 11000, "unit": "ng·h/mL"},
      {"measurement": "IC50", "setting": "SHV-1", "value": 12, "unit": "nM"},
      {"measurement": "IC50", "setting": "TEM-1", "value": 2.6, "unit": "nM"},
      {"measurement": "IC50", "setting": "OXA-1", "value": 2100, "unit": "nM"},
      {"measurement": "IC50", "setting": "OXA-23", "value": 7400, "unit": "nM"},
      {"measurement": "IC50", "setting": "OXA-48", "value": 2.4, "unit": "nM"},
      {"measurement": "IC50", "setting": "SHV-12", "value": 4.1, "unit": "nM"},
      {"measurement": "IC50", "setting": "PAE ampC", "value": 280, "unit": "nM"},
      {"measurement": "IC50", "setting": "OXA-40", "value": 8300, "unit": "nM"}
    ]},
    {"smiles": "O=C1N2CC(n3cccn3)=CC(C2)N1OC(F)(F)C(=O)[O-].[Li+]", "note": "(stereo not drawn) [AF3]", "values": [
      {"measurement": "IC50", "setting": "SHV-1", "value": 6, "unit": "nM"},
      {"measurement": "IC50", "setting": "TEM-1", "value": 0.81, "unit": "nM"},
      {"measurement": "IC50", "setting": "OXA-1", "value": 1100, "unit": "nM"},
      {"measurement": "IC50", "setting": "OXA-23", "value": 9600, "unit": "nM"},
      {"measurement": "IC50", "setting": "OXA-48", "value": 5.1, "unit": "nM"},
      {"measurement": "IC50", "setting": "SHV-12", "value": 4.3, "unit": "nM"},
      {"measurement": "IC50", "setting": "PAE ampC", "value": 98, "unit": "nM"},
      {"measurement": "IC50", "setting": "OXA-40", "value": 8900, "unit": "nM"}
    ]}
  ]
}
